Source: US8609669B2, “Potassium channel modulators” (AbbVie Inc., priority 2010, dated 2013)
pEC50: −log10 of the molar value.

Molecular target: T1, KCNQ 2/3 channels (HEK293 cells stably expressing human KCNQ2 and KCNQ3 subunits) (Homo sapiens, UniProt O43525+O43526)
T1 construct: expressed in transfected cells; host or cells: HEK293
Assay: KCNQ2/3 channel activation, thallium flux FLIPR assay (BTC-AM dye)
Type: cell-based
Details: for Emax: HEK293, maximum response relative to response of retigabine at 10 μM (set at 100%), read-out: Max. %; for pEC50: HEK293 cells expressing human KCNQ2 and KCNQ3, FLIPR thallium flux
Experimental: The following example describes the assay that can be used to identify compounds that activate KCNQ 2/3 channels.
HEK293 cells stably expressing human KCNQ2 and KCNQ3 subunits were seeded in 96-well, black-walled, clear-bottomed, poly-D-lysine coated plates (BD Biosciences, Bedford, Mass.) at a density of 1×10^5 cells per well 24 hours before the assay. On the assay day, BTC-AM dye (Invitrogen, Carlsbad, Calif.) was loaded into the cells by replacing the cell culture medium with 100 μL/well of 4 μM dye in DPBS. Dye loading was allowed to proceed for 2 hours at room temperature and then cells were washed twice in 100 μL/well of assay buffer (in mM: 10 HEPES pH 7.3, 5 glucose, 140 Na-gluconate, 2.5 K-gluconate, 3.6 Ca-gluconate, 2 MgSO4, 0.1 Ouabain) to remove unloaded dye. Cells were incubated in 50 μL of assay buffer before loading onto a FLIPR system (Molecular Devices, Sunnyvale, Calif.). Various concentrations of compounds to be assayed were added to the cells in 50 μL of assay buffer and incubated for 4 minutes. The fluorescence signal was initiated by adding 100 μL of assay buffer containing 6 mM TlNO3 and 10 mM K2SO4. Fluors were excited using the 488-nm line of an argon laser and emission was filtered using a 540±30 nm bandpass filter. Fluorescent signals were recorded for 3 minutes. Responses over baseline values were plotted versus concentrations of test compounds to obtain an EC50 value. The maximum response for each test compound was determined relative to the response produced at 10 μM by retigabine. The maximum response of retigabine at 10 μM was set at 100%.

SMILES	Emax [%]	pEC50
Cc1ccnc2c(-c3ccc(F)cc3)c(NC(=O)Cc3ccc(F)cc3)nn12 [Example 28, 2-(4-fluorophenyl)-N-[3-(4-fluorophenyl)-7-methylpyrazolo[1,5-a]pyrimidin-2-yl]acetamide]	120	5.00 to 6.00
COC(=O)c1c(NC(=O)CCC2CCCC2)nn2cccnc12 [Example 125, methyl 2-[(3-cyclopentylpropanoyl)amino]pyrazolo[1,5-a]pyrimidine-3-carboxylate]	8	< 5.00
COc1cccc(CC(=O)Nc2nn3c(C)cc(C)nc3c2-c2cccc(Cl)c2)c1 [Example 54, N-[3-(3-chlorophenyl)-5,7-dimethylpyrazolo[1,5-a]pyrimidin-2-yl]-2-(3-methoxyphenyl)acetamide]	67	5.00 to 6.00
O=C(CCC1CCCC1)Nc1nn2cccnc2c1-c1cccnc1 [Example 119, 3-cyclopentyl-N-[3-(pyridin-3-yl)pyrazolo[1,5-a]pyrimidin-2-yl]propanamide]	52	5.00 to 6.00
COc1ccc(CC(=O)Nc2nn3c(C)ccnc3c2-c2ccc(C(F)(F)F)cc2)cc1 [Example 80, 2-(4-methoxyphenyl)-N-{7-methyl-3-[4-(trifluoromethyl)phenyl]pyrazolo[1,5-a]pyrimidin-2-yl}acetamide]	59	< 5.00
O=C(CC12CC3CC(CC(C3)C1)C2)Nc1nn2cccnc2c1-c1ccc(Cl)cc1 [Example 162, 2-(adamantan-1-yl)-N-[3-(4-chlorophenyl)pyrazolo[1,5-a]pyrimidin-2-yl]acetamide]	128	6.00 to 6.30
COc1cccc(CC(=O)Nc2nn3c(C)ccnc3c2CC(C)(C)C)c1 [Example 38, N-[3-(2,2-dimethylpropyl)-7-methylpyrazolo[1,5-a]pyrimidin-2-yl]-2-(3-methoxyphenyl)acetamide]	163	< 5.00
O=C(CC12CC3CC(CC(C3)C1)C2)Nc1nn2cccnc2c1-c1ccc(OC(F)(F)F)cc1 [Example 142, 2-(adamantan-1-yl)-N-{3-[4-(trifluoromethoxy)phenyl]pyrazolo[1,5-a]pyrimidin-2-yl}acetamide]	152	5.00 to 6.00
O=C(NCC1CCCCC1)Nc1nn2cccnc2c1-c1ccc(Cl)cc1 [Example 99, 1-[3-(4-chlorophenyl)pyrazolo[1,5-a]pyrimidin-2-yl]-3-(cyclohexylmethyl)urea]	94	5.00 to 6.00
CC(C)(C)c1c(NC(=O)Cc2ccccc2)nn2cccnc12 [Example 137, N-(3-tert-butylpyrazolo[1,5-a]pyrimidin-2-yl)-2-phenylacetamide]	195	5.00 to 6.00
Cc1ccc(-c2c(NC(=O)CC(C)(C)C)nn3c(C)ccnc23)cc1F [Example 12, N-[3-(3-fluoro-4-methylphenyl)-7-methylpyrazolo[1,5-a]pyrimidin-2-yl]-3,3-dimethylbutanamide]	101	5.00 to 6.00
COc1ccc(CC(=O)Nc2nn3c(C)cc(C)nc3c2CC(C)(C)C)cc1 [Example 16, N-[3-(2,2-dimethylpropyl)-5,7-dimethylpyrazolo[1,5-a]pyrimidin-2-yl]-2-(4-methoxyphenyl)acetamide]	174	5.00 to 6.00
O=C(Cc1ccc(F)cc1)Nc1nn2cccnc2c1-c1ccc(OC(F)(F)F)cc1 [Example 140, 2-(4-fluorophenyl)-N-{3-[4-(trifluoromethoxy)phenyl]pyrazolo[1,5-a]pyrimidin-2-yl}acetamide]	66	< 5.00
CC(C)(C)CC(=O)Nc1nn2cccnc2c1/C=C/c1ccc(C(F)(F)F)cc1 [Example 147, 3,3-dimethyl-N-(3-{(E)-2-[4-(trifluoromethyl)phenyl]vinyl}pyrazolo[1,5-a]pyrimidin-2-yl)butanamide]	65	5.00 to 6.00
COc1cccc(CC(=O)Nc2nn3cc(C)cnc3c2-c2ccc(OC(F)(F)F)cc2)c1 [Example 8, 2-(3-methoxyphenyl)-N-{6-methyl-3-[4-(trifluoromethoxy)phenyl]pyrazolo[1,5-a]pyrimidin-2-yl}acetamide]	140	6.00 to 6.30
Cc1cc(-c2c(NC(=O)Cc3ccc(F)cc3)nn3cccnc23)ccc1Cl [Example 45, N-[3-(4-chloro-3-methylphenyl)pyrazolo[1,5-a]pyrimidin-2-yl]-2-(4-fluorophenyl)acetamide]	95	< 5.00
O=C(Nc1nn2cccnc2c1-c1ccc(Cl)cc1)NC1CCCCC1 [Example 108, 1-[3-(4-chlorophenyl)pyrazolo[1,5-a]pyrimidin-2-yl]-3-cyclohexylurea]	8	< 5.00

Other lines, results leading:

Emax [%]	pEC50	SMILES
198	> 7.00	Cc1cnc2c(-c3ccc(F)c(C)c3)c(NC(=O)CC3CC4CCC3C4)nn2c1 (racemic) [Example 150, (±)-exo-2-bicyclo[2.2.1]hept-2-yl-N-[3-(4-fluoro-3-methylphenyl)-6-methylpyrazolo[1,5-a]pyrimidin-2-yl]acetamide]
167	> 7.00	Cc1cc(C)n2nc(NC(=O)CCC3CCCC3)c(-c3ccccc3)c2n1 [Example 95, 3-cyclopentyl-N-(5,7-dimethyl-3-phenylpyrazolo[1,5-a]pyrimidin-2-yl)propanamide]
78	6.30 to 7.00	Cc1ccn2nc(NC(=O)Cc3ccc(F)cc3)c(-c3ccc(OC(F)(F)F)cc3)c2n1 [Example 168, 2-(4-fluorophenyl)-N-{5-methyl-3-[4-(trifluoromethoxy)phenyl]pyrazolo[1,5-a]pyrimidin-2-yl}acetamide]
98	6.30 to 7.00	O=C(CCC1CCCC1)Nc1nn2cccnc2c1-c1cccc(Cl)c1 [Example 56, N-[3-(3-chlorophenyl)pyrazolo[1,5-a]pyrimidin-2-yl]-3-cyclopentylpropanamide]
94	6.30 to 7.00	CC(C)(C)c1c(NC(=O)CC23CC4CC(CC(C4)C2)C3)nn2cccnc12 [Example 107, 2-(adamantan-1-yl)-N-(3-tert-butylpyrazolo[1,5-a]pyrimidin-2-yl)acetamide]
133	> 7.00	Cc1cnc2c(Cc3ccc(F)cc3)c(NC(=O)CCC3CCCCC3)nn2c1 [Example 77, 3-cyclohexyl-N-[3-(4-fluorobenzyl)-6-methylpyrazolo[1,5-a]pyrimidin-2-yl]propanamide]
119	6.30 to 7.00	Cc1cc(C)n2nc(NC(=O)CCC3CC3)c(-c3ccc(Cl)c(C)c3)c2n1 [Example 114, N-[3-(4-chloro-3-methylphenyl)-5,7-dimethylpyrazolo[1,5-a]pyrimidin-2-yl]-3-cyclopropylpropanamide]
123	6.30 to 7.00	Cc1cnc2c(-c3ccc(C(F)(F)F)cc3)c(NC(=O)CCc3ccccc3)nn2c1 [Example 59, N-{6-methyl-3-[4-(trifluoromethyl)phenyl]pyrazolo[1,5-a]pyrimidin-2-yl}-3-phenylpropanamide]
134	6.30 to 7.00	CC(C)(C)c1c(NC(=O)CC2CCC3C2C3(Cl)Cl)nn2cccnc12 (stereo not drawn) [Example 169, N-(3-tert-butylpyrazolo[1,5-a]pyrimidin-2-yl)-2-[(cis)-6,6-dichlorobicyclo[3.1.0]hex-2-yl]acetamide]
194	> 7.00	CC(C)(C)Cc1c(NC(=O)CCC2CCCCC2)nn2cccnc12 [Example 11, 3-cyclohexyl-N-[3-(2,2-dimethylpropyl)pyrazolo[1,5-a]pyrimidin-2-yl]propanamide]
122	6.30 to 7.00	Cc1ccnc2c(-c3ccc(C(F)(F)F)cc3)c(NC(=O)CCC3CCCCC3)nn12 [Example 79, 3-cyclohexyl-N-{7-methyl-3-[4-(trifluoromethyl)phenyl]pyrazolo[1,5-a]pyrimidin-2-yl}propanamide]
182	6.30 to 7.00	CCC1(c2c(NC(=O)CCC3CCCC3)nn3cccnc23)CCCCC1 [Example 145, 3-cyclopentyl-N-[3-(1-ethylcyclohexyl)pyrazolo[1,5-a]pyrimidin-2-yl]propanamide]
142	6.30 to 7.00	Cc1cc(C)n2nc(NC(=O)CC3CCCCC3)c(-c3ccc(Cl)cc3)c2n1 [Example 42, N-[3-(4-chlorophenyl)-5,7-dimethylpyrazolo[1,5-a]pyrimidin-2-yl]-2-cyclohexylacetamide]
267	> 7.00	Cc1cnc2c(CC(C)(C)C)c(NC(=O)CCC3CCCCC3)nn2c1 [Example 17, 3-cyclohexyl-N-[3-(2,2-dimethylpropyl)-6-methylpyrazolo[1,5-a]pyrimidin-2-yl]propanamide]
160	6.30 to 7.00	CC(C)(C)c1c(NC(=O)CCc2ccccc2)nn2cccnc12 [Example 129, N-(3-tert-butylpyrazolo[1,5-a]pyrimidin-2-yl)-3-phenylpropanamide]
